In patent publication US9529005B2, “Modulating bacterial MAM polypeptides in pathogenic disease” (priority 2011, dated 2016):
Values after ≈ are worked out from the molar mass of the structure shown. Like-named read-outs stand apart in the source and are kept apart here.

Legend:
Experiment in all cases: Antimicrobial susceptibility testing (MIC), BD Phoenix Automated Microbiology System; for interpretation of the result: key: R, resistant; I, intermediate; S, susceptible; R*: *As a rule, when ESBL is detected, an interpretation of susceptible or intermediate for penicillins, cephalosporins and aztreonam is reported as resistant
Type in all cases: cell-based
Acinetobacter baumannii = conditions: for MIC: Acinetobacter baumannii
From the text: (§1) The inventors performed antimicrobial susceptibility testing (AST) by determining the minimal inhibiting concentration (MIC) of a panel of antimicrobials on all twenty bacterial isolates using the BD Phoenix Automated Microbiology System (Table 3). Antimicrobial panels included several drugs from each of the four most commonly used classes of antimicrobials, aminoglycosides, β-lactams, carbapenems and fluoroquinolones. The panels also included antimicrobials from other classes, such as trimethoprim/sulfamethoxazole, but resistance to these was not considered in the classification of isolates as multidrug-resistant.

Escherichia coli = conditions: for MIC: Escherichia coli
From the text: as §1

Klebsiella ssp. = conditions: for MIC: Klebsiella
From the text: as §1

Pseudomonas aeruginosa = conditions: for MIC: Pseudomonas aeruginosa
From the text: as §1

[1] = Acinetobacter baumannii isolate 1
[2] = Acinetobacter baumannii isolate 2
[3] = Acinetobacter baumannii isolate 3
[4] = Acinetobacter baumannii isolate 4
[5] = Acinetobacter baumannii isolate 5
[6] = read-out: minimal inhibiting concentration, Acinetobacter baumannii isolate 1
[7] = read-out: minimal inhibiting concentration, Acinetobacter baumannii isolate 2
[8] = read-out: minimal inhibiting concentration, Acinetobacter baumannii isolate 3
[9] = read-out: minimal inhibiting concentration, Acinetobacter baumannii isolate 4
[10] = read-out: minimal inhibiting concentration, Acinetobacter baumannii isolate 5
[11] = read-out: minimal inhibiting concentration, Escherichia coli isolate 1
[12] = read-out: minimal inhibiting concentration, Escherichia coli isolate 2
[13] = read-out: minimal inhibiting concentration, Escherichia coli isolate 3
[14] = read-out: minimal inhibiting concentration, Escherichia coli isolate 4
[15] = read-out: minimal inhibiting concentration, Escherichia coli isolate 5
[16] = read-out: minimal inhibiting concentration, Klebsiella ssp. isolate 1
[17] = read-out: minimal inhibiting concentration, Klebsiella ssp. isolate 2
[18] = read-out: minimal inhibiting concentration, Klebsiella ssp. isolate 3
[19] = read-out: minimal inhibiting concentration, Klebsiella ssp. isolate 4
[20] = read-out: minimal inhibiting concentration, Klebsiella ssp. isolate 5
[21] = Pseudomonas aeruginosa isolate 1
[22] = Pseudomonas aeruginosa isolate 2
[23] = Pseudomonas aeruginosa isolate 3
[24] = Pseudomonas aeruginosa isolate 4
[25] = Pseudomonas aeruginosa isolate 5
[26] = read-out: minimal inhibiting concentration, Pseudomonas aeruginosa isolate 1
[27] = read-out: minimal inhibiting concentration, Pseudomonas aeruginosa isolate 2
[28] = read-out: minimal inhibiting concentration, Pseudomonas aeruginosa isolate 3
[29] = read-out: minimal inhibiting concentration, Pseudomonas aeruginosa isolate 4
[30] = read-out: minimal inhibiting concentration, Pseudomonas aeruginosa isolate 5

Molecule	interpretation of the result (Acinetobacter baumannii; [1])	interpretation of the result (Acinetobacter baumannii; [2])	interpretation of the result (Acinetobacter baumannii; [3])	interpretation of the result (Acinetobacter baumannii; [4])	interpretation of the result (Acinetobacter baumannii; [5])	interpretation of the result (Escherichia coli; Escherichia coli isolate 1)	interpretation of the result (Escherichia coli; Escherichia coli isolate 2)	interpretation of the result (Escherichia coli; Escherichia coli isolate 3)	interpretation of the result (Escherichia coli; Escherichia coli isolate 4)	interpretation of the result (Escherichia coli; Escherichia coli isolate 5)	interpretation of the result (Klebsiella ssp.; Klebsiella ssp. isolate 1)	interpretation of the result (Klebsiella ssp.; Klebsiella ssp. isolate 2)	interpretation of the result (Klebsiella ssp.; Klebsiella ssp. isolate 3)	interpretation of the result (Klebsiella ssp.; Klebsiella ssp. isolate 4)	interpretation of the result (Klebsiella ssp.; Klebsiella ssp. isolate 5)	interpretation of the result (Pseudomonas aeruginosa; [21])	interpretation of the result (Pseudomonas aeruginosa; [22])	interpretation of the result (Pseudomonas aeruginosa; [23])	interpretation of the result (Pseudomonas aeruginosa; [24])	interpretation of the result (Pseudomonas aeruginosa; [25])	other results
O=C1CN(/N=C/c2ccc([N+](=O)[O-])o2)C(=O)N1 [Nf., Nitrofurantoin]	R	R	R	R	R	S	S	S	S	S	R	R	R	R	R	R	R	R	R	R	MIC (Acinetobacter baumannii; [6]): > 64 µg/mL; MIC (Acinetobacter baumannii; [7]): > 64 µg/mL; MIC (Acinetobacter baumannii; [8]): > 64 µg/mL; MIC (Acinetobacter baumannii; [9]): > 64 µg/mL; MIC (Acinetobacter baumannii; [10]): > 64 µg/mL; MIC (Escherichia coli; [11]): 32 µg/mL (≈ 134 µM); MIC (Escherichia coli; [12]): ≤ 16 µg/mL; MIC (Escherichia coli; [13]): ≤ 16 µg/mL; MIC (Escherichia coli; [14]): ≤ 16 µg/mL; MIC (Escherichia coli; [15]): ≤ 16 µg/mL; MIC (Klebsiella ssp.; [16]): > 64 µg/mL; MIC (Klebsiella ssp.; [17]): > 64 µg/mL; MIC (Klebsiella ssp.; [18]): > 64 µg/mL; MIC (Klebsiella ssp.; [19]): > 64 µg/mL; MIC (Klebsiella ssp.; [20]): > 64 µg/mL; MIC (Pseudomonas aeruginosa; [26]): > 64 µg/mL; MIC (Pseudomonas aeruginosa; [27]): > 64 µg/mL; MIC (Pseudomonas aeruginosa; [28]): > 64 µg/mL; MIC (Pseudomonas aeruginosa; [29]): > 64 µg/mL; MIC (Pseudomonas aeruginosa; [30]): > 64 µg/mL
C[C@H]1COc2c(N3CCN(C)CC3)c(F)cc3c(=O)c(C(=O)O)cn1c23 [Lev., Levofloxacin]	R	R	I	R	R	R	R	R	R	R	R	S	S	S	S	R	R	R	R	R	MIC (Acinetobacter baumannii; [6]): > 4 µg/mL; MIC (Acinetobacter baumannii; [7]): > 4 µg/mL; MIC (Acinetobacter baumannii; [8]): 4 µg/mL (≈ 11.1 µM); MIC (Acinetobacter baumannii; [9]): > 4 µg/mL; MIC (Acinetobacter baumannii; [10]): > 4 µg/mL; MIC (Escherichia coli; [11]): > 4 µg/mL; MIC (Escherichia coli; [12]): > 4 µg/mL; MIC (Escherichia coli; [13]): > 4 µg/mL; MIC (Escherichia coli; [14]): > 4 µg/mL; MIC (Escherichia coli; [15]): > 4 µg/mL; MIC (Klebsiella ssp.; [16]): > 4 µg/mL; MIC (Klebsiella ssp.; [17]): ≤ 1 µg/mL; MIC (Klebsiella ssp.; [18]): ≤ 1 µg/mL; MIC (Klebsiella ssp.; [19]): ≤ 1 µg/mL; MIC (Klebsiella ssp.; [20]): ≤ 1 µg/mL; MIC (Pseudomonas aeruginosa; [26]): > 4 µg/mL; MIC (Pseudomonas aeruginosa; [27]): > 4 µg/mL; MIC (Pseudomonas aeruginosa; [28]): > 4 µg/mL; MIC (Pseudomonas aeruginosa; [29]): > 4 µg/mL; MIC (Pseudomonas aeruginosa; [30]): > 4 µg/mL
Trimethoprim-Sulfamethoxazole [TmSm.]	R	R	R	R	R	R	R	R	R	R	R	S	S	S	R	R	R	R	R	R	minimal inhibiting concentration (Acinetobacter baumannii; [1]): 2/38; minimal inhibiting concentration (Acinetobacter baumannii; [2]): 2/38; minimal inhibiting concentration (Acinetobacter baumannii; [3]): 2/38; minimal inhibiting concentration (Acinetobacter baumannii; [4]): 2/38; minimal inhibiting concentration (Acinetobacter baumannii; [5]): 2/38; minimal inhibiting concentration (Escherichia coli; Escherichia coli isolate 1): 2/38; minimal inhibiting concentration (Escherichia coli; Escherichia coli isolate 2): 2/38; minimal inhibiting concentration (Escherichia coli; Escherichia coli isolate 3): 2/38; minimal inhibiting concentration (Escherichia coli; Escherichia coli isolate 4): 2/38; minimal inhibiting concentration (Escherichia coli; Escherichia coli isolate 5): 2/38; minimal inhibiting concentration (Klebsiella ssp.; Klebsiella ssp. isolate 1): 2/38; minimal inhibiting concentration (Klebsiella ssp.; Klebsiella ssp. isolate 5): 2/38; minimal inhibiting concentration (Pseudomonas aeruginosa; [21]): 2/38; minimal inhibiting concentration (Pseudomonas aeruginosa; [22]): 2/38; minimal inhibiting concentration (Pseudomonas aeruginosa; [23]): 2/38; minimal inhibiting concentration (Pseudomonas aeruginosa; [24]): 2/38; minimal inhibiting concentration (Pseudomonas aeruginosa; [25]): 2/38
